Counter-ions that a name gives are not always drawn.
Legend:
A-549 cells = assay: Total cellular cAMP measurement, A-549; format: cell-based, human
Protocol: (§1) Total cellular cAMP measurement—The measurement of total cellular cAMP was done using a cAMP Biotrak ™ Enzymeimmunoassay (EIA) system (Amersham Biosciences, Piscataway, N.J.) according to the manufacturer's protocol. Briefly, 2000 cells were plated into each well of a 96 well plate. The next day cells were treated with increasing concentrations of ARA-211 or with vehicle for one hour. Alternatively, MDA-MB-231 cells were pre-treated with antagonists to the α1 (Prazosin, Sigma), α2 (Yohimbine, Sigma), β1 (Metoprolol, Sigma), and β2 (ICI 118.551, Sigma) adrenergic receptors at 100 nM for 15 minutes followed by treatment with 10 μM ARA-211 for 45 minutes. Cells were then lysed directly in the wells using the supplied lysis buffer. The lysate was transferred to a 96-well cAMP ELISA plate, and results were quantified using a Wallac Victor 2 plate reader.

Mek-1 = target: T1, Mek-1 (Homo sapiens, UniProt Q02750); assay: In vitro kinase assay, Mek-1 immunoprecipitated from MDA-MB-231 cells; format: biochemical; conditions: immunoprecipitated kinase treated in vitro, 10 μM
T1 construct: c-Raf-1 and Mek-1, immunoprecipitated from MDA-MB-231 cells; endogenous in cells; host or cells: MDA-MB-231
T1 sequence (Q02750 whole entry): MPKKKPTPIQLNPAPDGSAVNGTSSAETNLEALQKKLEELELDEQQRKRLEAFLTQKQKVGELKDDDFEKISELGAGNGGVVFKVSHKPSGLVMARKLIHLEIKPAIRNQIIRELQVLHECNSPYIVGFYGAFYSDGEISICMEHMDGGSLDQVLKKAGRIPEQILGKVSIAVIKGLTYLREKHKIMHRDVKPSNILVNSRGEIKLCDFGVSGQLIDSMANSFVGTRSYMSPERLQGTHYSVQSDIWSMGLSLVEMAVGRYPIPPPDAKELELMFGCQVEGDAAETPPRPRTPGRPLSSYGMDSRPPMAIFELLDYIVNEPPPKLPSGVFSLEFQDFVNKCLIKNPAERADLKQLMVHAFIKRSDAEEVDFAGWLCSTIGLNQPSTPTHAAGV
Protocol: In Vitro Kinase Assays—MDA-MB-231 cells (2×10^6) were lysed for 30 minutes at 4° C. in RIPA-150 buffer (10 mM Tris pH 7.5, 150 mM NaCl, 10% glycerol, 5 mM EDTA, 1% Triton X-100, 0.1% SDS, 100 μM sodium orthovanadate, 1 μM aprotinin, 10 μM leupeptin, 10 μM antipain). Cell debris was pelleted at 13000 rpm for 15 minutes at 4° C. and the lysate was rocked overnight with 10 μg of either c-Raf or MEK antibodies (Santa Cruz Biotechnologies, Santa Cruz, Calif.). 25 μl of protein A/G PLUS agarose (Santa Cruz Biotechnology) was then added and rocked for 4 hours at 4° C. Samples were spun at 2000 rpm for 5 minutes to collect the agarose beads, which were then washed four times with lysis buffer. On the final wash each pellet was divided into 5. […]

P-Mek-1 = P-Mek-1 levels (Western blotting), MDA-MB-231; format: cell-based, human
Protocol: (§2) Western Blotting—Treated cell samples were lysed in 30 mM HEPES, 10 mM NaCl, 5 mM MgCl2, 25 mM NaF, 1 mM EGTA, 1% Triton-X-100, 10% Glycerol, 2 mM Sodium orthovanidate, 10 μg/mL aprotinin, 10 μg/mL soybean trypsin inhibitor, 25 μg/mL leupeptin, 2 mM phenylmethylsulfonylfluoride (PMSF), 6.4 mg/mL p-nitrophenylphosphate for 30 minutes at 4° C., and proteins run on SDS-PAGE gels then transferred to nitrocellulose membranes. Membranes were blocked in either 5% milk in PBS, pH 7.4, containing 0.1% Tween-20 (PBS-T) or 1% BSA in TBS, pH 7.5, containing 0.1% Tween-20 (TBS-T). Phospho-STAT3 and phospho-AKT antibodies were diluted in 1% BSA in TBS-T while phospho-c-Raf, phospho-Mek, and phospho-p44/p42 MAPK antibodies (Cell Signaling) were diluted in 5% milk in PBS-T for either 1 hour at room temperature or overnight at 4° C. HRP-conjugated secondary antibodies (Jackson ImmunoResearch, West Grove, Pa.) were diluted in 5% milk in PBS-T or TBS-T at a 1:1000 dilution for one hour at room temperature. Western blots results were visualized using enhanced chemiluminescence. Stripping of the membranes for reblotting was done using stripping buffer (62.5 mM Tris pH 7.6, 2% SDS, 0.7% 2-mercaptoethanol) at 50° C. for 30 minutes.

P-Erk 1/2 [1] = assay: P-Erk 1/2 levels, MCF-7; format: cell-based, human; conditions: MCF-7 (breast)
Protocol: as §2

SNB-19 cells = assay: Total cellular cAMP measurement, SNB-19; format: cell-based, human
Protocol: as §1

SF-539 cells [2] = assay: Anchorage-independent growth (soft agar assay), SF-539; format: cell-based, human
Protocol: Soft Agar Assay—Anchorage independent growth assays were performed as previously described (Lerner et al., 1997). Briefly, agar was diluted to 0.3% in propagation media containing 20,000 cells and either vehicle or ARA-211 and 1 ml of cell/agar mixture plated on top of 2 ml of a 0.6% layer of agar in medium alone. Cells were grown for three to four weeks at 37° C., 10% Co2 and were fed weekly with 100 μl per well of media/treatment. Quantification of colonies was done using a GS-700 scanning densitometer.

SF-539 cells [3] = assay: Total cellular cAMP measurement, SF-539; format: cell-based, human
Protocol: as §1

P-STAT3 = P-STAT3 levels (Western blotting), MDA-MB-231; format: cell-based, human
Protocol: as §2

P-Erk 1/2 [4] = assay: P-Erk 1/2 levels (Western blotting), HCT-116; format: cell-based, human
Protocol: as §2

SMILES: CC(C)(C)NCC(O)c1ccc(O)c(CO)n1 (stereo not drawn) [ARA-211, 2-hydroxymethyl-3-hydroxy-6-(1-hydroxy-2-tert-butylaminoethyl) pyridine, dihydrochloride]
- cAMP (Fold Induction) (A-549 cells): 1.3 ± 0.3 Fold
- in vitro Mek-1 kinase activity (Mek-1): did not inhibit
- P-Mek-1 levels (P-Mek-1): suppressed
- inhibition of P-Erk 1/2 levels (P-Erk 1/2 [1]): did not
- cAMP (Fold Induction) (SNB-19 cells): 1.2 ± 0.4 Fold
- Anchorage Independent Growth (% Inhibition) (SF-539 cells [2]): 94.4 ± 1.5%
- cAMP (Fold Induction) (SF-539 cells [3]): 13.1 ± 3.0 Fold
- P-STAT3 levels (P-STAT3): not
- P-Erk ½ (% Inhibition) (P-Erk 1/2 [4]): 0%
